According to patent US9296691B2, “Inhibitors of p75 receptor and their uses” (Horacio Uri Saragovi, priority 2010, dated 2016):

Test system: retinal ganglion cells (RGCs)
Test: Glaucoma (episcleral vein cauterization) model, quantification of surviving RGCs
Assay type: in vivo
Details: rat glaucoma, intravitreal injections days 14 and 21, endpoint day 42; contralateral normal eye = 100%; control glaucoma 74-77%
Experimental: Wistar rats (female, 250-300 g; Charles River) were kept in a 12 hours dark-light cycle with food and water ad libitum. All animal manipulations were performed between 9 AM and 12 AM. Deep anesthesia was used during cauterization (induction of glaucoma), ON transection, fluorogold labeling, intraocular injection procedures, Optical Coherence Tomography measurements, and euthanasia (ketamine, xylazine, acepromazine injected intraperitoneally: 50/5/1 mg/kg, as per IACUC recommendations). For measuring IOP, light anesthesia was used (a gas mixture of Oxygen, 2% isofluorane mixture, at a rate of 2.5 liter/min, as per IACUC recommendations).
The episcleral vein cauterization (EVC) model of rat (Shi et al., 2007; Shi et al., 2008) was used. […]
For studies in the glaucoma animal model the injections were performed at days 14 and 21 after cauterization. […] Thus, in this paradigm there is pre-existing damage for 14 days before treatment (measured at ˜8% RGC death (Shi et al., 2007; Shi et al., 2008)); and the treatments require long-lived efficacy in the constant presence of retinal stress due to high IOP. […]
Quantification of labeled RGCs was performed as reported (Shi et al., 2007; Shi et al., 2008). […] Pictures for each freshly flat-mounted retina were taken using a Zeiss fluorescence microscope (Carl Zeiss Meditec, Jena, Germany), with 12 pictures/retina at 20× magnification. […]

`CC(C)NC(=O)N(C(=O)Cn1cnc2c1c(=O)n(C)c(=O)n2C)C(C)C` [I-B, 1,3-Diisopropyl-1-[2-(1,3-dimethyl-2,6-dioxo-1,2,3,6-tetrahydro-purin-7-yl)-acetyl]-urea] gave an RGCs surviving of 92%.
